{"source": "paper PMC12188386", "about": "“Selective CBP/EP300 Bromodomain Inhibitors: Novel Epigenetic Tools to Counter TNF-α-Driven Inflammation” (JACS Au, 2025)", "key": {"CBP-BRD [1]": {"biological_target": "CBP-BRD", "parameters": "method as in Pegg et al., 2017; Brooks et al., 2017", "settings": "SPR, ref Pegg et al., 2017, Brooks et al., read-out: Affinity to CBP-BRD, Kd; cited from earlier work"}, "BRD4(1)-BRD": {"system": "BRD4(1)-BRD", "settings": "cited from earlier work"}, "kinetic solubility": {"test": "kinetic solubility", "assay_type": "physicochemical", "settings": "PBS pH 7.4, 37°C, 90 min; ± st. dev. between technical replicates", "description": "Starting from an initial concentration of 100, 50 or 20 µM, a 2-fold serial dilution of the compound (10 mM stock in DMSO) was prepared in a mixture of ACN/Buffer (PBS, pH = 7.4) 2:8, with 1% DMSO. 350 µL was transferred to a 96-Well Plate (Greiner, UV-star) then UV absorption (240-400 nm, 10 nm steps) was measured. The absorption was blank-corrected and plotted against concentration. The wavelength (λ) providing the best fitting straight line […]\n(§1) was used as the calibration curve. To obtain saturated solutions of the compounds of interest, in duplicates 4.4 µL of a 10 or 5 mM stock in DMSO was added to 436 µL Buffer (PBS, pH = 7.4), to give a final concentration of 100 or 50 µM. Samples were incubated on a shaker (500 rpm) at 37°C for 90 minutes and then filtered (Millex-GV 13 mm, 0.22 µm). 304 µL of the filtrate was mixed with 76 µL of acetonitrile on a dilution plate, from which 350 µL was transferred to a UV-plate and UV-absorption was read using a SpectraMax M5 (Molecular devices). The absorbance was blank-corrected and compared to the calibration curve to […]\n(§2) solubility. The wavelengths used for the calibration curve are available in Table S4.\n(§3) Based on the known density of 12.5 % CAPTISOL® solution (d = 1.05755 g/mL at 25 °C), the precise weight of the resulting solution and so the required amount of water by weight was calculated. The water was added portion wise with agitation, vortexing and sonication cycles in between additions. The saturated solutions were then filtered (Millex-GV 13 mm, 0.22 µm). In duplicates, aliquots of the filtrates were taken and diluted with blank 12.5 % CAPTISOL® water solution in either a 1:14 (higher sol. compounds) or 1:7 (lower sol. compounds) ratio, 350 µL was transferred to a 96-Well Plate (Greiner, UV-star) then UV absorption (240-400 nm, 10 nm steps) was measured using a SpectraMax M5 (Molecular devices). The absorption was blank-corrected, compared to the calibration curve obtained during the solubility measurement method above and finally corrected for the dilution ratio to obtain the compound concentration in the saturated 12.5 % CAPTISOL® solution. The calculated concentrations are available in Table S4.\n(§4) BROMOscan™ assays (provided by Eurofins DiscoverX, US)1,2 […]\ncoli host derived from the BL21 strain. E. coli were grown to log-phase and infected with T7 phage from a frozen stock (multiplicity of infection = 0.4) and incubated with shaking at 32°C until lysis (90-150 minutes). The lysates were centrifuged (5,000 x g) and filtered (0.2µm) to remove cell debris. Streptavidin-coated magnetic beads were treated with biotinylated small molecule or acetylated peptide ligands for 30 minutes at room temperature to generate affinity resins for bromodomain assays. The liganded beads were blocked with excess biotin and washed with blocking buffer (SeaBlock (Pierce), 1 % BSA, 0.05 % Tween 20, 1 mM DTT) to remove unbound ligand and to reduce non specific phage binding. Binding reactions were assembled by combining bromodomains, liganded affinity beads, and test compounds (see […]\nSodium azide, 7.4 mM DTT). All reactions were performed in polypropylene 384-well plates in a final volume of 0.02 mL. The assay plates were incubated at room temperature with […]\n20). The beads were then resuspended in elution buffer (1x PBS, 0.05% Tween 20, 2 µM non-"}, "[2]": {"system": "TNF-α-induced cytokine expression in THP-1 cells", "test": "cytokine mRNA expression by RT-qPCR", "assay_type": "cell-based, human", "settings": "1 h co-treatment of THP-1 cells with 10 ng/mL TNF-α and 1 μM compound", "description": "For cytokine expression determination, 5x10^5 THP-1 cells were plated on 12 well plates the day prior to treatment with 10 ng/mL recombinant human TNF -α (aa 77-233) protein (R&D systems, 10291 -TA) and compounds at a final concentration of 0.1 % DMSO. In all cases, total\nRNA was extracted using the NucleoSpin® RNA kit (Machery -Nagel) and used for cDNA synthesis with the High -Capacity cDNA Reverse Transcription kit (Applied Biosystems). RT-qPCR reactions were performed using PowerSYBR™ green PCR Master Mix (Applied Biosystems) and a LightCycler® 480 (Roche). cDNA was denatured for 10 min at 95 °C followed by 40 cycles of 15 s at 95 °C and 1 min at 60 °C. Cp values were determined as the maximum of the second derivative and target gene expression was compared to that of hprt from the same sample using the 2-ΔCp method. Gene expression was then normalized to the average of the control samples from the same day, or all biological replicates. […]"}, "[3]": {"system": "TNF-α-induced IL-8 secretion from THP-1 cells", "test": "cytokine protein measurement (LEGENDPlex)", "assay_type": "cell-based, human", "settings": "10 ng/mL TNF-α, 1 μM compound", "description": "For cytokine expression determination, 5x10^5 THP-1 cells were plated on 12 well plates the day prior to treatment with 10 ng/mL recombinant human TNF -α (aa 77-233) protein (R&D systems, 10291 -TA) and compounds at a final concentration of 0.1 % DMSO. In all cases, total […]\nCytokine protein measurements\nTHP-1 cells were plated and treated as for the quantitative RT -PCR, then the cell culture medium was harvested by pelleting the cells (300g, 3min) and taking the supernatant .\nCytokine protein concentrations were determined using the LEGENDPlexTM Human Inflammation Panel 1 (BioLegend) assay with 25 µL of culture medium following the manufacturer’s instructi ns. amp es were ana zed f w c t metr n an rtessa Biosciences), and data was analyzed using LEGENDPlex software (BioLegend)."}, "MRC5 cells": {"system": "MRC5 cells", "test": "viability assay (resazurin)", "assay_type": "cell-based", "settings": "three-day treatment, concentration resulting in 70 % viability", "description": "MRC5 (2x10^3 cells/well) or THP-1 (8x10^3 cells/well) cells were plated onto 96 well plates and treated with compounds at a final DMSO concentration of 0.5 % (MRC5) or 0.1 % (THP-1).\nAfter 3 days of treatment, resazurin (Acros Organics) was added at a final concentration of 86 μ and incu ated for 2h15 (MRC5) or 3 h (THP-1). Fluorescence (ex. 560 nm, em. 590 nm) was read using a SpectraMax M5 (Molecular devices). GI30 values were calculated as the compound concentration resulting in 70 % viability compared to DMSO treated controls using a nonlinear regression fit using GraphPad Prism with the following equation: (Y=Bottom + (100-Bottom)/(1+(IC50/X)^HillSlope)). […]\nAfter 1.5 h, mice were injected with 10 µL of the prepared CAPTISOL […]\nfoodpad and also intraperitoneally (for i.p. injection, the 10 µL of CAPTISOL solution was diluted to a final volume of 100 µL using PBS). Organs were collected 5 h after TNF-α […]\nLEGENDPlexTM assays (Mouse Pro-inflammatory Chemokine Panel and Mouse Inflammation Panel; Biolegend) were performed to monitor cytokine/chemokine expression. Briefly, popliteal LNs were collected and carefully disrupted in […] ice-cold phosphate buffer, minimizing cell rupture. The suspension was centrifuged at 1,500 rpm for 5 min, and the […]"}, "[4]": {"test": "concentration in saturated 12.5% CAPTISOL solution", "assay_type": "physicochemical", "settings": "filtered 12.5 w/v% CAPTISOL in water, st. dev. between technical replicates (n=2)", "description": "as §1, §2\nSample preparation in CAPTISOL® […]\nas §3, with “lower solubility (2) compounds respectively in a 12.5 w/v% CAPTISOL® solution in water. In a precisely tared vial, required amounts of compounds and CAPTISOL® were weighed out as solids. Based” for “Based”\nas §4\ncoli host derived from the BL21 strain. […]"}, "[5]": {"system": "immune cell recruitment to the popliteal lymph node", "test": "TNF-α induced inflammation model, flow cytometry of pLN", "assay_type": "in vivo, mouse", "settings": "mice, flow cytometry 5 h post-injection of rmTNF-α, vs control group"}, "CBP-BRD [6]": {"system": "CBP-BRD", "settings": "TR-FRET; ref Crawford et al., 2016; read-out: Affinity to CBP-BRD, IC50 (Published); cited from earlier work"}, "CBP-BRD [7]": {"biological_target": "CBP-BRD", "settings": "ITC; ref Picaud et al., 2015; Popp et al., 2016; read-out: Affinity to CBP-BRD, Kd; cited from earlier work"}}, "note": "Like-named read-outs stand apart in the source and are kept apart here."}
{"molecule": "CO[C@H]1CC[C@H](n2c([C@@H]3CCCC(=O)N3c3ccc(F)c(F)c3)nc3cc(-c4c(C)noc4C)ccc32)CC1", "note": "[CCS1477]", "values": [{"measurement": "Kd", "setting": "CBP-BRD [1]", "value": 1.7, "unit": "nM"}, {"measurement": "Sel. over BRD4(1)-BRD", "setting": "BRD4(1)-BRD; ref Pegg et al., 2017, Brooks et al.", "value": 130, "unit": "fold"}]}
{"molecule": "CC(=O)N1CCc2c(c(Nc3ccc(-c4cnn(C)c4)cc3F)nn2[C@H]2CCOC2)C1", "note": "[GNE-272, reference compound]", "values": [{"measurement": "Kin. Sol.", "setting": "kinetic solubility", "value": "75.1 ± 1.0", "unit": "µM"}, {"measurement": "TNF-α-induced expression of il1β, il8, mcp-1 and tnf-α (mRNA)", "setting": "[2]", "value": "inhibited expression to a greater extent than the less potent but more soluble inhibitor 5"}, {"measurement": "TNF-α-induced IL-8 protein secretion", "setting": "[3]", "value": "significantly reducing its TNF-α-induced secretion"}, {"measurement": "GI30", "setting": "MRC5 cells", "value": "> 10000", "unit": "nM"}, {"measurement": "Conc. in 12.5% Captisol sol.", "setting": "[4]", "value": "715 ± 12", "unit": "µM"}, {"measurement": "recruitment of lymphocytes (T and B cells), dendritic cells and neutrophils to the pLN", "setting": "[5]", "value": "significantly inhibited the recruitment of lymphocytes"}, {"measurement": "IC50", "setting": "CBP-BRD [6]", "value": 20, "unit": "nM"}]}
{"molecule": "CCC(=O)N1CCOc2c(cc(-c3ccc(OC)c(OC)c3)cc2OC[C@H]2CCCN(C)C2)C1", "note": "[I-CBP112]", "values": [{"measurement": "Kd", "setting": "CBP-BRD [7]", "value": 151, "unit": "nM"}, {"measurement": "Sel. over BRD4(1)-BRD", "setting": "BRD4(1)-BRD; ref Picaud et al., 2015, Popp et al., 2016", "value": 37, "unit": "fold"}]}
